From US9896456B2, “Pharmaceutical compound having inhibitory activity against cholesterol acyltransferase isozyme 2 (ACAT2)” (School Juridical Person Kitasato Institute, priority 2014, dated 2018)

Molecular target: T1, ACAT2 (Mus musculus, UniProt O88908)
T1 construct: The resulting sediment was collected as a murine hepatic microsome fraction; from tissue; host or cells: mouse liver (hepatic microsome fraction)
T1 sequence (O88908 1-525): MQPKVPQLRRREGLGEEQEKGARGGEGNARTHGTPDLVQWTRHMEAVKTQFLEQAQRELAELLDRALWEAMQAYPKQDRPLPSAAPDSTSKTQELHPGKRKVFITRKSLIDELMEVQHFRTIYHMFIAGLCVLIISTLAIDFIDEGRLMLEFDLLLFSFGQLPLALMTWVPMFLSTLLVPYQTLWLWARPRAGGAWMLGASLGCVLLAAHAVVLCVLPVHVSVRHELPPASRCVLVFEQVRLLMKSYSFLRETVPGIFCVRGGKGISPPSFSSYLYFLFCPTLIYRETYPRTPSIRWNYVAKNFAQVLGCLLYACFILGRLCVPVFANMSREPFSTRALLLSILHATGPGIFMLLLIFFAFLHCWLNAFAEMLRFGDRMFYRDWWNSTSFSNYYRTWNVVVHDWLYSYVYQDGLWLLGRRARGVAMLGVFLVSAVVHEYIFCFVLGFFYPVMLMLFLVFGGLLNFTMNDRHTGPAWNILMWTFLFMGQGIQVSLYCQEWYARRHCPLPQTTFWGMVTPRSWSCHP
Assay: Test of inhibitory activity against ACAT2 (murine hepatic microsome, [1-14C]oleoyl coenzyme A)
Format: biochemical
Details: for IC50: murine hepatic microsome fraction as enzyme source, 37° C., 5 minutes; for degree of inhibitory activity against ACAT2 (in words, compared with pyripyropene A): summary of Table 1
Description: The compounds produced in accordance with the procedure described above were tested concerning the inhibitory activity against ACAT2 in the manner described below.
The ACAT2 enzyme protein was extracted from the membrane fraction derived from the murine hepatic microsome. Mouse livers were homogenized in buffer A (50 mM Tris-HCl buffer (pH 7.8), 1 mM ethylenediaminetetraacetic acid, and 1 mM phenylmethanesulfonyl fluoride) using a Potter-type homogenizer (Tokyo-RIKO). The homogenate was centrifuged at 12,000×g, and the supernatant was subjected to ultracentrifugation at […]. The resulting sediment was collected as a murine hepatic microsome fraction, and this fraction was adjusted so as to have a protein concentration of 5 mg/ml using buffer A. Thus, an enzyme source of the ACAT2 enzyme protein was obtained.
ACAT2 activity was measured in the manner described below. […] The reaction solution was incubated at 37° C. for 5 minutes. A reaction solution prepared with the addition of 10 μl of methanol in place of the sample was used as a control reaction solution.
After the incubation, the reaction was terminated with the addition of 1.2 ml of a chloroform/methanol (1:2) solution to the reaction solution. […] The resulting chloroform layer was evaporated to dryness and spotted on a thin layer chromatography (TLC) plate (silica gel plate, 0.5 mm thickness, Merck). Separation was carried out with the use of a solvent comprising hexane/diethyl ether/acetic acid (70:30:1, v/v). Subsequently, [^14C] cholesteryl oleate separated on the TLC plate was quantified using FLA 7000 (Fuji Film). […] In quantification of the [^14C] cholesteryl oleate, the radioactivity of a TLC plate onto which no substance had been spotted was designated as the background level.
The symbols used in the table are as defined below.

| Structure (SMILES) | IC50 | degree of inhibitory activity against ACAT2 (in words, compared with pyripyropene A) |
| --- | --- | --- |
| CC(=O)OCC(COC(C)=O)[C@@H]1C[C@H](OC(C)=O)[C@@]2(C)Oc3cc(-c4cccnc4)oc(=O)c3[C@H](O)[C@@H]2C1(C)C [PT010] | 10 to 100 µM |  |
| CC(=O)O[C@H]1C[C@@H](C(C)C)C[C@H]2[C@@H](O)c3c(cc(-c4cccnc4)oc3=O)O[C@]12C [PT001, (5aS,6S,8S,9aS,10R)-10-hydroxy-8-isopropyl-5a-methyl-1-oxo-3-(pyridin-3-yl)-1,5a,6,7,8,9,9a,10-octahydropyrano[4,3-b]chromen-6-yl acetate] | 10 to 100 µM |  |
| CC(=O)O[C@H]1C[C@@H](C(C)C)C[C@H]2[C@H](O)c3c(cc(-c4cccnc4)oc3=O)O[C@]12C [PT002, (5aS,6S,8S,9aS,10S)-10-hydroxy-8-isopropyl-5a-methyl-1-oxo-3-(pyridin-3-yl)-1,5a,6,7,8,9,9a,10-octahydropyrano[4,3-b]chromen-6-yl acetate] | 10 to 100 µM |  |
| CC(=O)O[C@H]1C[C@@H](C(C)C)C(C)(C)[C@H]2[C@@H](O)c3c(cc(-c4cccnc4)oc3=O)O[C@]12C [PT008, (5aS,6S,8S,9aS,10R)-10-hydroxy-8-isopropyl-5a,9,9-trimethyl-1-oxo-3-(pyridin-3-yl)-1,5a,6,7,8,9,9a,10-octahydropyrano[4,3-b]chromen-6-yl acetate] | 0.5 to 10 µM |  |
| CC(=O)O[C@H]1C[C@@H](C(C)C)C[C@H]2C(O)c3c(cc(-c4ccccc4)oc3=O)O[C@]12C (stereo in doubt) [PT003, (5aS,6S,8S,9aS,10R)-10-hydroxy-8-isopropyl-5a-methyl-1-oxo-3-phenyl-1,5a,6,7,8,9,9a,10-octahydropyrano[4,3-b]chromen-6-yl acetate] | 10 to 100 µM |  |

The next lines start with results.

| IC50 | Structure (SMILES) | degree of inhibitory activity against ACAT2 (in words, compared with pyripyropene A) |
| --- | --- | --- |
| < 0.5 µM | CC(C)[C@@H]1C[C@H](OC(=O)c2ccc(C#N)cc2)[C@@]2(C)Oc3cc(-c4cccnc4)oc(=O)c3[C@H](O)[C@@H]2C1(C)C [PT009, (5aS,6S,8S,9aS,10R)-10-hydroxy-8-isopropyl-5a,9,9-trimethyl-1-oxo-3-(pyridin-3-yl)-1,5a,6,7,8,9,9a,10-octahydropyrano[4,3-b]chromen-6-yl 4-cyanobenzoate] | substantially equivalent to that of pyripyropene A |
| < 0.5 µM | CC(=O)OCC(COC(C)=O)[C@@H]1C[C@H](OC(=O)c2ccc(C#N)cc2)[C@@]2(C)Oc3cc(-c4cccnc4)oc(=O)c3[C@H](O)[C@@H]2C1(C)C [PT022, 2-((5aS,6S,8S,9aS,10R)-6-((4-cyanobenzoyl)oxy)-10-hydroxy-5a,9,9-trimethyl-1-oxo-3-(pyridin-3-yl)-1,5a,6,7,8,9,9a,10-octahydropyrano[4,3-b]chromen-8-yl)propane-1,3-diyl diacetate] |  |
| < 0.5 µM | CC(C)[C@@H]1C[C@H](OC(=O)c2ccc(C#N)cc2)[C@@]2(C)Oc3cc(-c4cccnc4)oc(=O)c3[C@H](O)[C@@H]2C1 [PT005, (5aS,6S,8S,9aS,10R)-10-hydroxy-8-isopropyl-5a-methyl-1-oxo-3-(pyridin-3-yl)-1,5a,6,7,8,9,9a,10-octahydropyrano[4,3-b]chromen-6-yl 4-cyanobenzoate] | substantially equivalent to that of pyripyropene A |
| 0.5 to 10 µM | CC(=O)O[C@H]1C[C@@H](C(C)C)C[C@H]2[C@H](O)c3c(cc(-c4ccccc4)oc3=O)O[C@]12C [PT004, (5aS,6S,8S,9aS,10S)-0-hydroxy-8-isopropyl-5a-methyl-1-oxo-3-phenyl-1,5a,6,7,8,9,9a,10-octahydropyrano[4,3-b]chromen-6-yl acetate] |  |
| 0.5 to 10 µM | CC(C)[C@@H]1C[C@H](OC(=O)c2ccc(C#N)cc2)[C@@]2(C)Oc3cc(-c4ccccc4)oc(=O)c3[C@H](O)[C@@H]2C1 [PT007, (5aS,6S,8S,9aS,10R)-10-hydroxy-8-isopropyl-5a-methyl-1-oxo-3-phenyl-1,5a,6,7,8,9,9a,10-octahydropyrano[4,3-b]chromen-6-yl 4-cyanobenzoate] |  |
| < 0.5 µM | CC(C)[C@@H]1C[C@H](OC(=O)c2ccc(C#N)cc2)[C@@]2(C)Oc3cc(-c4cccnc4)oc(=O)c3[C@@H](O)[C@@H]2C1 [PT006, (5aS,6S,8S,9aS,10S)-10-hydroxy-8-isopropyl-5a-methyl-1-oxo-3-(pyridin-3-yl)-1,5a,6,7,8,9,9a,10-octahydropyrano[4,3-b]chromen-6-yl 4-cyanobenzoate] | substantially equivalent to that of pyripyropene A |
